Measurements as given in patent US7226944B2, “Taxanes having a C7 carbonate substituent” (FSU Research Foundation, Inc., priority 2000, dated 2007).

System: HCT116
Assay: In vitro cytotoxicity measured by the cell colony formation assay
Type: cell-based
Conditions: HCT116 cells; drug concentration producing 50% inhibition of colony formation; 72 h with drug at 37° C., colonies counted after 7 days; read-out: IN VITRO ID 50 (nm) HCT116
Experimental: Four hundred cells (HCT116) were plated in 60 mm Petri dishes containing 2.7 mL of medium (modified McCoy's 5a medium containing 10% fetal bovine serum and 100 units/mL penicillin and 100 µg/mL streptomycin). The cells were incubated in a CO2 incubator at 37° C. for 5 h for attachment to the bottom of Petri dishes. The compounds identified in Example 2 were made up fresh in medium at ten times the final concentration, and then 0.3 mL of this stock solution was added to the 2.7 mL of medium in the dish. The cells were then incubated with drugs for 72 h at 37° C. At the end of incubation the drug-containing media were decanted, the dishes were rinsed with 4 mL of Hank's Balance Salt Solution (HBSS), 5 mL of fresh medium was added, and the dishes were returned to the incubator for colony formation. The cell colonies were counted using a colony counter after incubation for 7 days.
For `C/C=C/C(=O)N[C@@H](c1cccs1)[C@@H](O)C(=O)O[C@H]1C[C@@]2(O)[C@@H](OC(=O)c3ccccc3)C3[C@](C)(C(=O)[C@H](O)C(=C1C)C2(C)C)[C@@H](OC(=O)OCC)C[C@H]1OC[C@@]31OC(C)=O` (stereo partly shown) [Compound 4855], the IC50 was less than 1 nM. Compound `COC(=O)O[C@H]1C[C@H]2OC[C@@]2(OC(C)=O)C2[C@H](OC(=O)c3ccccc3)[C@]3(O)C[C@H](OC(=O)[C@H](O)[C@@H](NC(=O)OC(C)(C)C)c4ccsc4)C(C)=C([C@@H](O)C(=O)[C@@]21C)C3(C)C` (stereo partly shown) [Compound 4474] has an IC50 of less than 1 nM. `CCOC(=O)O[C@H]1C[C@H]2OC[C@@]2(OC(C)=O)C2[C@H](OC(=O)c3ccccc3)[C@]3(O)C[C@H](OC(=O)[C@H](O)[C@@H](NC(=O)OCC(C)C)c4ccsc4)C(C)=C([C@@H](O)C(=O)[C@@]21C)C3(C)C` (stereo partly shown) [Compound 4979] gave an IC50 of less than 10 nM. `CCOC(=O)O[C@H]1C[C@H]2OC[C@@]2(OC(C)=O)C2[C@H](OC(=O)c3ccccc3)[C@]3(O)C[C@H](OC(=O)[C@H](O)[C@@H](NC(=O)C=C(C)C)c4ccco4)C(C)=C([C@@H](O)C(=O)[C@@]21C)C3(C)C` (stereo partly shown) [Compound 6151] gave an IC50 of less than 1 nM. In the case of `COC(=O)O[C@H]1C[C@H]2OC[C@@]2(OC(C)=O)C2[C@H](OC(=O)c3ccccc3)[C@]3(O)C[C@H](OC(=O)[C@H](O)[C@@H](NC(=O)OC(C)(C)C)c4ccoc4)C(C)=C([C@@H](O)C(=O)[C@@]21C)C3(C)C` (stereo partly shown) [Compound 4434], the IC50 is reported as less than 1 nM. In the case of `COC(=O)O[C@H]1C[C@H]2OC[C@@]2(OC(C)=O)C2[C@H](OC(=O)c3ccccc3)[C@]3(O)C[C@H](OC(=O)[C@H](O)[C@@H](NC(=O)OCC(C)C)C4CC4)C(C)=C([C@@H](O)C(=O)[C@@]21C)C3(C)C` (stereo partly shown) [Compound 5211], the IC50 is reported as less than 10 nM. For `CCOC(=O)O[C@H]1C[C@H]2OC[C@@]2(OC(C)=O)C2[C@H](OC(=O)c3ccccc3)[C@]3(O)C[C@H](OC(=O)[C@H](O)[C@@H](NC(=O)c4ccco4)c4cccs4)C(C)=C([C@@H](O)C(=O)[C@@]21C)C3(C)C` (stereo partly shown) [Compound 4304], the IC50 was less than 10 nM. Work on `CCOC(=O)O[C@H]1C[C@H]2OC[C@@]2(OC(C)=O)C2[C@H](OC(=O)c3ccccc3)[C@]3(O)C[C@H](OC(=O)[C@H](O)[C@H](C=C(C)C)NC(=O)OCC(C)C)C(C)=C([C@@H](O)C(=O)[C@@]21C)C3(C)C` (stereo partly shown) [Compound 4688] yielded an IC50 of less than 10 nM. With `CC(=O)O[C@H]1C[C@H]2OC[C@@]2(OC(C)=O)C2[C@H](OC(=O)c3ccccc3)[C@]3(O)C[C@H](OC(=O)[C@H](O)[C@@H](NC(=O)OCC(C)C)c4ccsc4)C(C)=C([C@@H](O)C(=O)[C@@]21C)C3(C)C` (stereo partly shown) [Compound 4515] the IC50 was less than 10 nM. In the case of `CCOC(=O)O[C@H]1C[C@H]2OC[C@@]2(OC(C)=O)C2[C@H](OC(=O)c3ccccc3)[C@]3(O)C[C@H](OC(=O)[C@H](O)[C@@H](NC(=O)C=C(C)C)c4cccs4)C(C)=C([C@@H](O)C(=O)[C@@]21C)C3(C)C` (stereo partly shown) [Compound 4164], the IC50 is reported as less than 1 nM. Compound `C/C=C/C(=O)N[C@@H](c1ccco1)[C@@H](O)C(=O)O[C@H]1C[C@@]2(O)[C@@H](OC(=O)c3ccccc3)C3[C@](C)(C(=O)[C@H](O)C(=C1C)C2(C)C)[C@@H](OC(=O)OC)C[C@H]1OC[C@@]31OC(C)=O` (stereo partly shown) [Compound 4744] has an IC50 of less than 1 nM. Compound `CCOC(=O)O[C@H]1C[C@H]2OC[C@@]2(OC(C)=O)C2[C@H](OC(=O)c3ccccc3)[C@]3(O)C[C@H](OC(=O)[C@H](O)[C@@H](NC(=O)OC(C)(C)C)c4ccoc4)C(C)=C([C@@H](O)C(=O)[C@@]21C)C3(C)C` (stereo partly shown) [Compound 4464] has an IC50 of less than 1 nM. For `CC(=O)O[C@H]1C[C@H]2OC[C@@]2(OC(C)=O)C2[C@H](OC(=O)c3ccccc3)[C@]3(O)C[C@H](OC(=O)[C@H](O)[C@@H](NC(=O)OC(C)(C)C)C4CC4)C(C)=C([C@@H](O)C(=O)[C@@]21C)C3(C)C` (stereo partly shown) [Compound 4555], the IC50 was less than 1 nM. With `COC(=O)O[C@H]1C[C@H]2OC[C@@]2(OC(C)=O)C2[C@H](OC(=O)c3ccccc3)[C@]3(O)C[C@H](OC(=O)[C@H](O)[C@@H](NC(=O)OC(C)(C)C)C4CC4)C(C)=C([C@@H](O)C(=O)[C@@]21C)C3(C)C` (stereo partly shown) [Compound 4566] the IC50 was less than 1 nM.

Same assay, conditions: Homo sapiens, HCT-116; read-out: IN VITRO ID 50 (nm) HCT116
In the case of `COC(=O)O[C@H]1C[C@H]2OC[C@@]2(OC(C)=O)C2[C@H](OC(=O)c3ccccc3)[C@]3(O)C[C@H](OC(=O)[C@H](O)[C@@H](NC(=O)OC(C)(C)C)c4cccs4)C(C)=C([C@@H](O)C(=O)[C@@]21C)C3(C)C` (stereo partly shown) [Compound 4262, 3′-Desphenyl-3′-(2-thienyl)-7-methoxycarbonyl taxotere], the IC50 is reported as less than 1 nM.

System: not given
Assay: not given
Conditions: not given
`COC(=O)O[C@H]1C[C@H]2OC[C@@]2(OC(C)=O)C2[C@H](OC(=O)c3ccccc3)[C@]3(O)C[C@H](OC(=O)[C@H](O)[C@@H](NC(=O)OC(C)(C)C)c4cccs4)C(C)=C([C@@H](O)C(=O)[C@@]21C)C3(C)C` (stereo partly shown) [Compound 4262, 3′-Desphenyl-3′-(2-thienyl)-7-methoxycarbonyl taxotere] showed a melting point of 142.5 to 143 °C.
